According to ChEMBL document CHEMBL2417389, “Synthesis and optimization of novel (3S,5R)-5-(2,2-dimethyl-5-oxo-4-phenylpiperazin-1-yl)piperidine-3-carboxamides as orally active renin inhibitors” (Bioorg Med Chem, 2013):
Numbering of substitutions follows the chain as printed. Blank lines part the entries; values can stand above or below the compound they belong to. The source made the active and inactive calls. The calls are words filed in the database; no cut-off is given here.

How the values were obtained:
hERG (KCNH2) = hERG (KCNH2) (Homo sapiens, UniProt Q12809); assay: Inhibition of human ERG channel at 30 uM by patch clamp technique
Sequence of hERG (KCNH2) (Q12809 whole entry): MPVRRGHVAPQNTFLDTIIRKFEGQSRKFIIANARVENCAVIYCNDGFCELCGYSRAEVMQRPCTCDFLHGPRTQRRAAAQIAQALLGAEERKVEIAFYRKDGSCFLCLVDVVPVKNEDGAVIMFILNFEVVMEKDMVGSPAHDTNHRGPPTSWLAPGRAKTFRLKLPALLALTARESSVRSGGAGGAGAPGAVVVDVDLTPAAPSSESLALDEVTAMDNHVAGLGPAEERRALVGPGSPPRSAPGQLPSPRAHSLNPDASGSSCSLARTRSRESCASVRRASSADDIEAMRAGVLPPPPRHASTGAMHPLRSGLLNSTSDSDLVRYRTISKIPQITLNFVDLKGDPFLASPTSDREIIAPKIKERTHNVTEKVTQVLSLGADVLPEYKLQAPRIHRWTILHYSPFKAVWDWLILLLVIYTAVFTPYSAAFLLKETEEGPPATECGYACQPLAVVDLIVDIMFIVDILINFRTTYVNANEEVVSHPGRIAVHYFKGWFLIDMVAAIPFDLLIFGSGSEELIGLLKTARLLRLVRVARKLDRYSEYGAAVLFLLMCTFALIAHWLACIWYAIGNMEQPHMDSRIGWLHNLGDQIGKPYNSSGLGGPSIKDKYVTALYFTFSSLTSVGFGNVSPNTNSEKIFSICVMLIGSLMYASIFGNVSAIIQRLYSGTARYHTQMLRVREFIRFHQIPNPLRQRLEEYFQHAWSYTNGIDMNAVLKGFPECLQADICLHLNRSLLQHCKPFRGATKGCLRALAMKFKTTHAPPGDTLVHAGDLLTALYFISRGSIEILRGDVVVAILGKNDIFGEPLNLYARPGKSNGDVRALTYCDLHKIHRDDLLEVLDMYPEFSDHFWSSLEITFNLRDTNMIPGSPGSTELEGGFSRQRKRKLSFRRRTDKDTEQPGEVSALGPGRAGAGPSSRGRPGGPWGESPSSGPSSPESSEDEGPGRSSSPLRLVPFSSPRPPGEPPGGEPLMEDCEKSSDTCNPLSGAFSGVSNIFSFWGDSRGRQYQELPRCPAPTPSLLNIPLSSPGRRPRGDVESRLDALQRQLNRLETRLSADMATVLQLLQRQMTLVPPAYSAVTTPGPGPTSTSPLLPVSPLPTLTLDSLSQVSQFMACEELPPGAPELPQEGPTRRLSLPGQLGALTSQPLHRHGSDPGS

Renin [1] = target: T1, Renin (Homo sapiens, UniProt P00797); assay: Inhibition of trypsin-activated human recombinant renin using (Arg-Glu(EDANS)-Ile-His-Pro-Phe-His-Leu-Val-Ile-His-Thr-Lys(DABCYL)-Arg) as substrate incubated for 10 mins prior to substrate addition measured after 90 mins by fluorescence assay
T1 sequence (P00797 whole entry): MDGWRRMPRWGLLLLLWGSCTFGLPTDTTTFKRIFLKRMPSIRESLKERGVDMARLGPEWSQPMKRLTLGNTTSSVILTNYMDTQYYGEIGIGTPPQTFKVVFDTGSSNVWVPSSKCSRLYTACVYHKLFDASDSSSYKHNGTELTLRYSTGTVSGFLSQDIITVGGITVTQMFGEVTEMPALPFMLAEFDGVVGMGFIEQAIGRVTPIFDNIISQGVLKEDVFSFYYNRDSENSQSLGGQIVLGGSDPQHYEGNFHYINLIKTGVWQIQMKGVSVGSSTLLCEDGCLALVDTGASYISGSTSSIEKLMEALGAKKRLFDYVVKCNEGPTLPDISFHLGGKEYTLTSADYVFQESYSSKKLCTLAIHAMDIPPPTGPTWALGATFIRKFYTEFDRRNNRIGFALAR

[2] = target: T2, Renin (Macaca fascicularis) (UniProt Q6DLS0); assay: Ratio of compound IC50 to Aliskiren hemifumarate IC50 for cynomolgus monkey plasma renin
T2 sequence (whole entry): T1 sequence (P00797 whole entry) with T68A, I214L, S235A

CYP2D6 = CYP2D6 (Homo sapiens, UniProt P10635); assay: Inhibition of CYP2D6 (unknown origin) at 10 uM; assay type: ADME
Sequence of CYP2D6 (P10635 whole entry): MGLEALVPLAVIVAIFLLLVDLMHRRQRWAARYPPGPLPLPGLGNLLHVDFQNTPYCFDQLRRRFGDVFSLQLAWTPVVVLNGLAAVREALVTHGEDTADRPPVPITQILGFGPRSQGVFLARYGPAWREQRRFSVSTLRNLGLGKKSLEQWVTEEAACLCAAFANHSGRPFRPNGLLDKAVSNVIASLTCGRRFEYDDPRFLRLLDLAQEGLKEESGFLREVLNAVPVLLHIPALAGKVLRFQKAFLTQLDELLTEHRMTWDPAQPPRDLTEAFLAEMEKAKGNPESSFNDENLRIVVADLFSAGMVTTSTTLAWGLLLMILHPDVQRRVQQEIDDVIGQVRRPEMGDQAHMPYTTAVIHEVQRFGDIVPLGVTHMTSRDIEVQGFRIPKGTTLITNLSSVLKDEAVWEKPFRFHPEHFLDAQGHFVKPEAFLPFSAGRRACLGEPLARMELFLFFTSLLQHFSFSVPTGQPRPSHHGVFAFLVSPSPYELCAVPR

CYP3A4 = CYP3A4 (Homo sapiens, UniProt P08684); assay: Inhibition of CYP3A4 (unknown origin) at 10 uM; assay type: ADME
Sequence of CYP3A4 (P08684 whole entry): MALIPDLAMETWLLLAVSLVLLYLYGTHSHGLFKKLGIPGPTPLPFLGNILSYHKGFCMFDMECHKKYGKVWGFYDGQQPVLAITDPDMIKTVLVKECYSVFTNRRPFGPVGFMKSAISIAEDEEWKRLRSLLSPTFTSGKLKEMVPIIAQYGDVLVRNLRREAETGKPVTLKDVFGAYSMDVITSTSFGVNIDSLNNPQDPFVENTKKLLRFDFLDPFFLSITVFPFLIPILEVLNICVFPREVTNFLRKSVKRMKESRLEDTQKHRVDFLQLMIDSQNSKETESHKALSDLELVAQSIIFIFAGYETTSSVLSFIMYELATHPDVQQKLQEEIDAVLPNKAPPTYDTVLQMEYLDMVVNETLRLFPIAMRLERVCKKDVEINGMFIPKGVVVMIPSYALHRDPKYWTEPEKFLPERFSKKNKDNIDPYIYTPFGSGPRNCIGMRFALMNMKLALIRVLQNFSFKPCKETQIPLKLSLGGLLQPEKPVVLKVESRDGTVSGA

Renin [3] = target: T3, Renin (Macaca fascicularis, UniProt Q6DLS0); assay: Inhibition of cynomolgus monkey plasma renin assessed as angiotensin 1 level after 60 mins by competitive radioimmunoassay
T3 sequence (Q6DLS0 whole entry): T1 sequence (P00797 whole entry) with T68A, I214L, S235A

Rattus norvegicus [4] = assay: Antihypertensive activity in double transgenic rat assessed as reduction in mean arterial pressure at 30 mg/kg, po measured for 48 hrs post dose; assay type: functional, organism-based; design: dose 30 mg/kg; settings: Artery
[5] = AUC (0 to 24 hrs) in cynomolgus monkey at 10 mg/kg, po; assay type: ADME, organism-based, Macaca fascicularis; design: time < 24 hr, dose 10 mg/kg, route oral; settings: plasma
[6] = Plasma protein binding in monkey by ultracentrifugation method; assay type: ADME, cell-free, Macaca mulatta; settings: rhesus monkey, read-out: PPB (converted)
[7] = Cmax in cynomolgus monkey at 10 mg/kg, po and 1 mg/kg, iv; assay type: ADME, organism-based, Macaca fascicularis; settings: in vivo
[8] = Clearance in Sprague-Dawley rat at 30 mg/kg, po and 1 mg/kg, iv; assay type: ADME, organism-based; settings: in vivo
[9] = Plasma protein binding in human by ultracentrifugation method; assay type: ADME, cell-free; settings: read-out: PPB (converted)
Cynomolgus monkey [10] = assay: Antihypertensive activity in cynomolgus monkey assessed as reduction in mean arterial pressure at 10 mg/kg, po measured for 24 hrs post dose; assay type: functional, organism-based; design: dose 10 mg/kg; settings: Macaca fascicularis, Artery
[11] = Lipophilicity, log D of the compound at pH 7.4; assay type: physicochemical; settings: buffer
Cavia porcellus [12] = species: Cavia porcellus; assay: Cardiotoxicity in guinea pig assessed as maximum dV/dt in right ventricular papillary muscle at 30 uM by glass microelectrode method relative to baseline; assay type: toxicity, Muscle tissue
[13] = Volume of distribution at steady state in cynomolgus monkey at 10 mg/kg, po and 1 mg/kg, iv; assay type: ADME, organism-based, Macaca fascicularis; settings: in vivo, read-out: Vdss
Rattus norvegicus [14] = assay: Antihypertensive activity in double transgenic rat assessed as reduction in mean arterial pressure at 30 mg/kg, po after 24 hrs; assay type: functional, organism-based; design: dose 30 mg/kg; settings: Artery
[15] = AUC (0 to 24 hrs) in Sprague-Dawley rat at 30 mg/kg, po; assay type: ADME, organism-based; design: time < 24 hr, dose 30 mg/kg, route oral; settings: plasma
[16] = Half life in Sprague-Dawley rat at 30 mg/kg, po and 1 mg/kg, iv; assay type: ADME, organism-based; settings: in vivo
Salmonella typhimurium [17] = assay: Genotoxicity in Salmonella typhimurium TA98 by Ames assay; assay type: toxicity, organism-based; settings: salmonella enterica subsp. enterica serovar typhimurium
Renin (Homo sapiens) = target: T4, Renin (Homo sapiens) (UniProt P00797); assay: Ratio of compound IC50 to Aliskiren hemifumarate IC50 for human plasma renin
T4 sequence (whole entry): T1 sequence (P00797 whole entry)

Salmonella typhimurium [18] = assay: Genotoxicity in Salmonella typhimurium TA100 by Ames assay; assay type: toxicity, organism-based; settings: salmonella enterica subsp. enterica serovar typhimurium
[19] = Oral bioavailability in Sprague-Dawley rat at 30 mg/kg; assay type: ADME, organism-based; settings: in vivo
[20] = Clearance in cynomolgus monkey at 10 mg/kg, and 1 mg/kg, iv; assay type: ADME, organism-based, Macaca fascicularis; settings: in vivo
[21] = Metabolic stability in human liver microsomes assessed as compound remaining after 30 mins; assay type: ADME, Microsome; settings: read-out: Stability
[22] = Oral bioavailability in cynomolgus monkey at 10 mg/kg; assay type: ADME, organism-based, Macaca fascicularis; settings: in vivo
[23] = Metabolic stability in monkey liver microsomes assessed as compound remaining after 30 mins; assay type: ADME, Macaca mulatta, Microsome; settings: rhesus monkey, read-out: Stability
[24] = Cmax in Sprague-Dawley rat at 30 mg/kg, po and 1 mg/kg, iv; assay type: ADME, organism-based; settings: in vivo
[25] = Plasma protein binding in rat by ultracentrifugation method; assay type: ADME, cell-free; settings: read-out: PPB (converted)
[26] = Half life in cynomolgus monkey at 10 mg/kg, po and 1 mg/kg, iv; assay type: ADME, organism-based, Macaca fascicularis; settings: in vivo
Cavia porcellus [27] = species: Cavia porcellus; assay: Cardiotoxicity in guinea pig assessed as action potential duration at 90% repolarization of right ventricular papillary muscle at 30 uM by glass microelectrode method relative to baseline; assay type: toxicity, Muscle tissue
Renin [28] = target: T1, Renin; assay: Inhibition of human plasma renin by competitive radioimmunoassay
[29] = Metabolic stability in rat liver microsomes assessed as compound remaining after 30 mins; assay type: ADME, Microsome; settings: read-out: Stability
[30] = Volume of distribution at steady state in Sprague-Dawley rat at 30 mg/kg, po and 1 mg/kg, iv; assay type: ADME, organism-based; settings: in vivo, read-out: Vdss
Cynomolgus monkey [31] = assay: Antihypertensive activity in po dosed cynomolgus monkey assessed as reduction in mean arterial pressure administered 3 days post furosemide-challenge measured after 24 hrs; assay type: functional, organism-based; settings: Macaca fascicularis; Artery

Compound: CC(C)C[C@@H](NC(=O)[C@@H]1CNC[C@H](N2CC(=O)N(c3ccccc3Cl)CC2(C)C)C1)c1ccccn1
IC50 (Renin [1]): 1.4 nM | Ratio IC50 [2]: 3.6 | IC50 (Renin [3]): 17 nM

Compound: Cc1ccccc1N1CC(C)(C)N([C@H]2CNC[C@@H](C(=O)N[C@H](CC(C)C)c3ccc(F)cn3)C2)CC1=O.O=C(O)/C=C/C(=O)O
inhibition at 30 µM (hERG (KCNH2)): 5.2% | IC50 (Renin [1]): 1.6 nM | AUC(0-t) at 24 h [5]: 3190 ng·h/mL | Ratio IC50 [2]: 0.9 | fraction unbound [6]: 0.45 | inhibition at 10 µM (CYP2D6): 1% | Cmax [7]: 604 ng/mL | inhibition at 10 µM (CYP3A4): 30% | clearance [8]: 80 mL/min/kg | fraction unbound [9]: 0.62 | AUC (Cynomolgus monkey [10]): -267 mmHg.hr | logD [11]: 2 | Activity (Cavia porcellus [12]): -11.6% | Vd [13]: 5.4 L/kg | Activity (Rattus norvegicus [14]): Active | IC50 (Renin [3]): 7 nM | AUC(0-t) at 24 h [15]: 1100 ng·h/mL | half-life [16]: 5.4 h | Activity (Salmonella typhimurium [17]): Non-toxic | Ratio IC50 (Renin (Homo sapiens)): 1.2 | Activity (Salmonella typhimurium [18]): Non-toxic | bioavailability [19]: 20% | clearance [20]: 9.5 mL/min/kg | remaining at 0.5 h [21]: 100% | bioavailability [22]: 25% | remaining at 0.5 h [23]: 84% | Cmax [24]: 204 ng/mL | fraction unbound [25]: 0.37 | half-life [26]: 7.9 h | Activity (Cavia porcellus [27]): -1% | IC50 (Renin [28]): 3.6 nM | remaining at 0.5 h [29]: 89% | AUC (Rattus norvegicus [4]): -581 mmHg.hr | Vd [30]: 11 L/kg | Activity (Cynomolgus monkey [31]): Dose-dependent effect

Compound: CC(C)C[C@@H](NC(=O)[C@@H]1CNC[C@H](N2CC(=O)N(c3ccccc3Cl)CC2(C)C)C1)c1ccno1
IC50 (Renin [1]): 1.1 nM | Ratio IC50 [2]: 0.6 | IC50 (Renin [3]): 3.3 nM

Compound: CC(C)CC(CC(C)C)NC(=O)[C@@H]1CNC[C@H](N2CC(=O)N(c3ccccc3Cl)CC2(C)C)C1
Ratio IC50 [2]: 2.8

Compound: CC(C)C[C@@H](NC(=O)[C@@H]1CNC[C@H](N2CC(=O)N(c3ccccc3Cl)CC2(C)C)C1)c1ncco1
IC50 (Renin [1]): 1.9 nM | Ratio IC50 [2]: 1.4 | IC50 (Renin [3]): 8.3 nM

Now from value to compound, other results behind:

IC50 (Renin [1]): 1.3 nM | Ratio IC50 [2]: 2.1 | inhibition at 10 µM (CYP2D6): 11% | inhibition at 10 µM (CYP3A4): 44% | IC50 (Renin [3]): 16 nM
Compound: Cc1ccc(F)cc1N1CC(C)(C)N([C@H]2CNC[C@@H](C(=O)N[C@H](CC(C)C)c3ccc(F)cn3)C2)CC1=O
inhibition at 30 µM (hERG (KCNH2)): 40% | AUC (Rattus norvegicus [4]): -606 mmHg.hr

Ratio IC50 [2]: 0.8
Compound: CC(C)C[C@@H](NC(=O)[C@@H]1CNC[C@H](N2CC(=O)N(c3ccccc3Cl)CC2(C)C)C1)C(O)C(C)C (stereo not given in full)

IC50 (Renin [1]): 2.4 nM | Ratio IC50 [2]: 3.7 | IC50 (Renin [3]): 19 nM
Compound: CC[C@@H](NC(=O)[C@@H]1CNC[C@H](N2CC(=O)N(c3ccccc3Cl)CC2(C)C)C1)c1ccc(F)cc1

IC50 (Renin [1]): 5.2 nM | Ratio IC50 [2]: 11 | IC50 (Renin [3]): 55 nM
Compound: CC[C@@H](NC(=O)[C@@H]1CNC[C@H](N2CC(=O)N(c3ccccc3Cl)CC2(C)C)C1)c1ccc(Cl)cc1

Ratio IC50 [2]: 2
Compound: CCC[C@@H](NC(=O)[C@@H]1CNC[C@H](N2CC(=O)N(c3ccccc3Cl)CC2(C)C)C1)c1ccccc1
